According to patent publication US20170035724A1, “MAMMALIAN SIRT1 ACTIVATOR” (priority 2015, published 2017):

What was measured:
mammalian SIRT1 [1] = assay: p53 deacetylation in A549 cells treated with corylin and nicotinamide, Western blotting; format: cell-based, human; settings: nicotinamide 1 hour before corylin, then UV, FIG. 6
Procedure: Nicotinamide is a mammalian SIRT1 inhibitor (Exp Hematol. 2012; 40(4): 342-55), and the compound is used to confirm the foregoing result. After human lung cancer A549 cells were cultured at 37° C. overnight, the cells were treated with a media containing nicotinamide, and then cultured at 37° C. for 1 hour. Corylin in various concentrations was added to the media, and the cells were cultured at 37° C. for 4 hours. After which, the cells were emitted with UV to acetylate p53, and cultured at 37° C. for 4 hours again. Finally, the total protein in the cells were extracted and analyzed using Western blotting.

wild type yeast cells = assay: Replicative life span of wild type yeast cells (passage number); format: cell-based
Procedure: (§1) A yeast colony was selected and cultured in a YEPD culture media. When the OD value of the media was at 0.6-0.8, 20 μl of the media was added to a YEPD solid media, and then 20-30 yeast cells were selected using a tetrad dissection microscope manipulation system. The selected yeast cells were cultured at 30° C. for 3-5 hours to divide into first generation yeast cells. Afterwards, the first generation yeast cells were cultured at 30° C. for 3-5 hours to divide into second generation yeast cells. The culturing step was repeated until final generation yeast cells which cannot divide anymore existed. Finally, the yeast cells' passage number was counted according to the total division number.

sir2-mutant yeast cells = assay: Replicative life span of sir2-mutant yeast cells (passage number); format: cell-based; settings: sir2-mutant yeast cells treated with corylin; untreated 9.8; FIG. 2
Procedure: as §1

PNC1 [2] = assay: PNC1 translation (Pnc1 protein) in corylin-treated yeast cells, Western blotting; format: cell-based; settings: 50 μM corylin for 10 hours; compared with calorie restriction for 10 hours as positive control; FIG. 4C
Procedure: To confirm the foregoing result, after yeast cells were treated with corylin in various concentrations for various periods, total protein therein was extracted and analyzed using Western blotting.

p53 [3] = assay: UV-induced p53 acetylation in human lung cancer A549 cells, Western blotting; format: cell-based; settings: corylin in various concentrations, 4 hours before UV, FIG. 5B
Procedure: (§2) After human lung cancer A549 cells or human osteosarcoma U2OS cells were cultured at 37° C. overnight, the cells were treated with various substances, and then cultured at 37° C. for 4 hours. After that, the cells were emitted with UV to acetylate p53, and cultured at 37° C. for 4 hours again. Finally, total protein extracted from the cells was analyzed using Western blotting.

p53 [4] = assay: UV-induced p53 acetylation in human osteosarcoma U2OS cells, Western blotting; format: cell-based; settings: corylin in various concentrations, 4 hours before UV, FIG. 5C
Procedure: as §2

mammalian SIRT1 [5] = assay: Mammalian SIRT1 expression in human osteosarcoma U2OS cells, Western blotting; format: cell-based; settings: increases with culturing period, FIG. 5A
Procedure: Human osteosarcoma U2OS cells were seeded and cultured at 37° C. overnight, and then the cells were treated with corylin and cultured at 37° C. again. After various culturing periods, total protein in the treated cells was extracted and analyzed using Western blotting.

PNC1 [6] = assay: PNC1 transcription in corylin-treated yeast cells (PCR and real-time PCR); format: cell-based; settings: various treatment periods; increases with treatment period; FIGS. 4A and 4B
Procedure: After yeast cells were treated with corylin for various periods, total RNA in the treated yeast cells was extracted. Then, the cDNA corresponding to the extracted RNA was formed using reverse transcription. Finally, the cDNA was analyzed using polymerase chain reaction and real-time polymerase chain reaction.

Compound: NC(=O)c1cccnc1 [nicotinamide, Nicotinamide]
- effect on p53 deacetylation caused by corylin (mammalian SIRT1 [1]): can inhibit the p53 deacetylation caused by corylin

Compound: corylin
- effective concentration on replicative life span of a yeast cell (wild type yeast cells; FIG. 3): 2 to 100 µM
- preferable effective concentration on replicative life span of a yeast cell (wild type yeast cells; FIG. 3, 'preferably'): 2 to 15 µM
- passage number (replicative life span) (wild type yeast cells; wild type yeast cells treated with corylin, untreated 26.9, FIG. 2): 33.2
- passage number (replicative life span) (sir2-mutant yeast cells): 10.6
- Pnc1 expression (PNC1 translation) (PNC1 [2]): can obviously express Pnc1
- acetylation of p53 induced by UV (p53 [3]): can repress the acetylation of p53 induced by UV
- acetylation of p53 induced by UV (p53 [4]): can repress the acetylation of p53 induced by UV
- mammalian SIRT1 expression (mammalian SIRT1 [5]): can promote the expression of mammalian SIRT1
- PNC1 transcription (PNC1 [6]): can promote the transcription of PNC1
